Data: US20050288247A1, “Inducible inactivation of synaptic transmission” (Cold Spring Harbor Laboratory, priority 2004, published 2005)

Tests used:
[1] = tested on: synaptic transmission in acute cortical brain slices; assay: Whole cell EPSC measurements in layer 2 pyramidal neurons in acute brain slices; format: cell-based, mice
Description: We further characterized CID-dependent inactivation of synaptic transmission using whole cell measurements of EPSC in layer (L) 2 pyramidal neurons in acute brain slices. MIST constructs were introduced into L 3 cells in vivo using in utero viral vector mediated gene delivery (VAMP/Syb MIST) or electroporation (Sph-StxTM MIST). Synaptic transmission was evoked with an extracellular stimulation electrode placed in a band of transfected/infected neurons, below (within 200 μm) the recording pipette.
Cortical brain slices (300 μm thick) were prepared from young mice (postnatal day 9-14) using a vibrating-blade microtome (VT1000S, Leica Microsystems). Chilled cutting solution contained 110 mM choline chloride, 25 mM NaHCO3, 25 mM D-glucose, 11.6 mM sodium ascorbate, 7 mM MgSO4, 3.1 mM sodium pyruvate, 2.5 mM KCl, 1.25 mM NaH2PO4, and 0.5 mM CaCl2. Slices were then transferred to artificial cerebrospinal fluid (“ACSF”) containing 127 mM NaCl, 25 mM NaHCO3, 25 mM D-glucose, 2.5 mM KCl, 2 mM MgCl2,1 mM CaCl2, and 1.25 mM NaH2PO4, aerated with 95% O2/5% CO2. Slices in ACSF were first incubated at 34° C. for 0.5 hr, then maintained at room temperature prior to use. For recordings, ACSF contained 4 mM MgCl2, 4 mM CaCl2 and […] CPP.
Neurons were visualized with infrared differential interference contrast optics, and patched using borosilicate electrodes (resistances, 4-7 MΩ). Access resistances were in the range 10-30 MΩ. Intracellular solution contained 120 mM CsMeSO3, 20 mM CsCl, 4 mM NaCl, 10 mM HEPES, 10 mM BAPTA, 4 mM Mg2ATP, and 0.3 mM Na2GTP, 14 mM sodium phosphocreatine, 3 mM ascorbate, and 0.1 Alexa-594 (Molecular Probes); pH was adjusted to 7.25 with CsOH. Excitatory currents were measured at a holding potential of −65 mV, close to reversal for fast inhibition. MIST-expressing neurons were stimulated with tungsten bipolar electrode in the middle of transfected region, and monosynaptic responses were recorded from cells within […]. Responses were amplified (Multiclamp, Axon Instruments), filtered at 1 kHz, and digitized at 10 kHz. […]

[2] = tested on: synaptic transmission of cortical neurons in cultured brain slices; assay: Evoked EPSCs in cultured brain slices infected with adenovirus-based VAMP MIST construct; format: cell-based
Description: We first tested the VAMP MIST construct in cultured brain slices. The adenovirus-based VAMP MIST construct was used to infect cortical neurons in cultured brain slices. Synaptic transmission was evoked with extracellular stimulation.

## CC[C@H](C(=O)N1CCCC[C@H]1C(=O)O[C@H](CCc1ccc(OC)c(OC)c1)c1cccc(OCC(=O)NCC(CNC(=O)COc2cccc([C@@H](CCc3ccc(OC)c(OC)c3)OC(=O)[C@@H]3CCCCN3C(=O)[C@@H](CC)c3cc(OC)c(OC)c(OC)c3)c2)CN(C)C)c1)c1cc(OC)c(OC)c(OC)c1 [AP20187]
[1]; bath application 100 nM AP20187, VAMP/Syb MIST
  amplitude of monosynaptic EPSCs: rapid decrease
[2]; 20 nM AP20187 in DMSO added to the bath, VAMP MIST infected slices
  amplitudes of monosynaptic EPSC and network discharge: rapid decrease

## CC[C@H](C(=O)N1CCCCC1C(=O)O[C@H](CCc1ccc(OC)c(OC)c1)c1cccc(OCC(=O)NCCCN(C)C)c1)c1cc(OC)c(OC)c(OC)c1 (some centres unmarked) [AP21998]
[1]; excess of monomeric reverser, 5 μM AP21998
  recovery of synaptic response with reverser: rapid partial recovery
[2]; 200 nM AP21998 reverser after homodimerizer
  recovery of monosynaptic EPSC and network discharge: rapid recovery

## AP21967
[1]; bath application 500 nM AP21967, Sph-StxTM MIST
  amplitude of monosynaptic EPSCs: rapid decrease
